Measurements reported in article PMC9060900 (RSC Advances, 2019).

Target: T1, TMV coat protein (TMV-CP; TMV CP) (Tobacco mosaic virus (vulgare), UniProt P69687)
T1 sequence (P69687 2-159): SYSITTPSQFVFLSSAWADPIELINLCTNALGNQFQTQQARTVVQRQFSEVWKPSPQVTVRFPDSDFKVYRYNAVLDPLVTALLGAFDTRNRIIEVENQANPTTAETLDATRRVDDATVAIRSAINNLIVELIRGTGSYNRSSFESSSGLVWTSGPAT
Experiment: microscale thermophoresis
Assay type: binding

Cc1csc(/C=C/C(=O)c2ccccc2OCCSc2nnc(-c3ccccc3)c(-c3ccccc3)n2)n1 [4o]
Kd: 245 ± 63.9 µM
